Among the data in paper doi:10.1101/2022.11.11.516135v3 (biorxiv, 2024) are Kd values, retold here.

As usually defined, the Kd is the free concentration of one partner at which half of the binding sites on the other are occupied at equilibrium, for simple one-to-one binding. A lower Kd goes with higher affinity.

This assay has as its target G3BP1-NTF2 (residues 1-139); NTF2-like domain of G3BP1 (Homo sapiens, UniProt Q13283). Description: biochemical. The format is binding.

SMILES strings stand for the structures.

Chain of G3BP1-NTF2 (residues 1-139); NTF2-like domain of G3BP1 (Q13283 1-139): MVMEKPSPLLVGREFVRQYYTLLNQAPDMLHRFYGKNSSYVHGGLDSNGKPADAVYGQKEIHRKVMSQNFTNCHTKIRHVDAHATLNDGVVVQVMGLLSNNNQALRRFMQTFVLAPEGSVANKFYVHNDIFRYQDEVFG

The compound `COc1ccc(Br)cc1S(=O)(=O)NC(=O)/C=C/c1ccccc1Cc1ccc2ccccc2c1` [L-7, L-798106] registered a Kd of 18.7 µM.
Under `CN1C[C@H](C(=O)N[C@]2(C)O[C@@]3(O)[C@@H]4CCCN4C(=O)[C@H](Cc4ccccc4)N3C2=O)C[C@@H]2c3cccc4[nH]cc(c34)C[C@H]21` [DHD, Dihydroergotamine] stands 54 µM; under `CC[C@H](NC(=O)c1c(C)c(-c2ccccc2)nc2ccccc12)c1ccccc1` [SB2, SB_222200], 66 µM.
Under `O=C1NCN(c2ccccc2)C12CCN(CCCC(c1ccc(F)cc1)c1ccc(F)cc1)CC2` [FLU, Fluspiriline] stands 71.4 µM; under `CNC(=O)c1c(F)cccc1Nc1nc(Nc2cc3c(cc2OC)CCN3C(=O)CN(C)C)nc2[nH]ccc12` [GSK, GSK1838705A], 98 µM.
